System: LL-37
Experiment: LL-37 expression (qPCR) in OKF6 gingival epithelial cells after overnight treatment
Assay type: cell-based
Details: topical application to gingival epithelial cells (GEC)
Protocol: OKF6 Cells (Gingival epithelial cells) were grown in 6 well tissue culture plates. Cells monolayer was treated with indicated doses (FIG. 1) of Vitamin D3 or phenylbutyrate alone or in combinations of two and cells were further incubated in tissue culture incubator for overnight incubation. After overnight incubation, cells were harvested in RNA lysis buffer. Lysates were processed for RNA isolation using Qiagen RNA isolation kit. RNA was processed for c-DNA preparation and further amplified (qPCR) using LL-37 (Hs 01011708_m1), Cyp24A1 (Hs00989018_m1), GAPDH (Hs 99999905_m1) Taqman genes specific probes. QPCR data was analyzed for fold induction of LL-37 expression and relative difference of expressions was plotted. […] As illustrated by the data described in FIGS. 1 and 2, the inventive combinations of the present invention provide a synergistic increase in LL-37 and CYP24A1, respectively.

How did the “expression of anti-microbial peptide (LL-37) proteins” value turn out when `C=C1/C(=C\C=C2/CCC[C@]3(C)[C@@H]([C@H](C)CCCC(C)(C)O)CC[C@@H]23)C[C@@H](O)C[C@@H]1O` [1,25(OH)2D3, 1,25-dihydroxycholecalciferol] was run?
Its value is “enhanced expression”.

Reference: patent publication US20220304907A1, “Oral Care Compositions” (Colgate-Palmolive Company, priority 2019, published 2022)
